Data published in US9187471B2, “Pyrido [4,3-b] indole and pyrido [3,4-b] indole derivatives and methods of use” (Medivation Technologies, Inc., priority 2010, dated 2015).

Tests used:
[1] = target: T1, human recombinant dopamine D2L receptor (Homo sapiens, UniProt P14416); assay: Dopamine D2L radioligand binding ([3H]Spiperone); settings: 0.16 nM [3H]Spiperone; for inhibition at 1 µM: read-out: Dopamine D2L (1 μM), percent inhibition of specific binding, compound at 1 μM
T1 construct: expressed in transfected cells; host or cells: CHO
Experimental: Non-specific binding was estimated in the presence of 10 μM Haloperidol. Receptor proteins were filtered and washed, the filters were then counted to determine [^3H]Spiperone specifically bound.

[2] = target: T2, rat adrenergic α1A receptor (Rattus norvegicus, UniProt P43140); assay: Adrenergic α1A radioligand binding ([3H]Prazosin); settings: read-out: Adrenergic (0.1 μM) a1A, percent inhibition of specific binding; compound at 0.1 μM; 0.25 nM [3H]Prazosin
T2 construct: rat adrenergic α1A receptor obtained from Wistar Rat submaxillary glands; from tissue; host or cells: Wistar rat submaxillary glands
T2 sequence (P43140 1-466): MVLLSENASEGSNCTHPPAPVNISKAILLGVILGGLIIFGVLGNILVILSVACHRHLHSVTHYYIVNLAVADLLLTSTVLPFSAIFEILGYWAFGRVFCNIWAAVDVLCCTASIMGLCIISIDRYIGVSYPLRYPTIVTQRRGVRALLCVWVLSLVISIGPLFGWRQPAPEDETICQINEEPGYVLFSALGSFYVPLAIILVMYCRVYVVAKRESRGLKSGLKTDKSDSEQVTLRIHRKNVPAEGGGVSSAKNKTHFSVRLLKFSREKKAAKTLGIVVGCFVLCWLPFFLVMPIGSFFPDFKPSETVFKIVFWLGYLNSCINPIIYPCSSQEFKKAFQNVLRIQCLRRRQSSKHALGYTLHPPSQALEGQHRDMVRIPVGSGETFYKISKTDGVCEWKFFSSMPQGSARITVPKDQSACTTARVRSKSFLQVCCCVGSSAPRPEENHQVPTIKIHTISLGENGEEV
Summary of the method: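 Wistar rat submaxillary gland receptor in 50 mM Tris-HCl pH 7.4 with 0.5 mM EDTA, incubated with compound and 0.25 nM [3H]Prazosin for 60 min at 25 °C.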

[3] = target: T3, human recombinant serotonin (5-Hydroxytryptamine) 5-HT2A receptor (Homo sapiens, UniProt P28223); assay: Serotonin 5-HT2A radioligand binding ([3H]Ketanserin); settings: compound at 0.1 μM; read-out: Inhibition of ligand binding, Serotonin 5-HT2A (percent inhibition of specific binding)
T3 construct: expressed in transfected cells; host or cells: CHO-K1
Experimental: Compounds of the invention were incubated with 0.5 nM [^3H]Ketanserin for 60 min at 25° C. Non-specific binding was estimated in the presence of 1 μM Mianserin. Receptor proteins were filtered and washed, the filters were then counted to determine [^3H]Ketanserin specifically bound.

[4] = target: T4, human recombinant adrenergic α2A receptor (Homo sapiens, UniProt P08913); assay: Adrenergic α2A radioligand binding ([3H]MK-912); settings: read-out: Adrenergic (0.1 μM) a2A, percent inhibition of specific binding; compound at 0.1 μM; 1 nM [3H]MK-912
T4 construct: expressed in transfected cells; host or cells: insect Sf9 cells
T4 sequence (P08913 1-465): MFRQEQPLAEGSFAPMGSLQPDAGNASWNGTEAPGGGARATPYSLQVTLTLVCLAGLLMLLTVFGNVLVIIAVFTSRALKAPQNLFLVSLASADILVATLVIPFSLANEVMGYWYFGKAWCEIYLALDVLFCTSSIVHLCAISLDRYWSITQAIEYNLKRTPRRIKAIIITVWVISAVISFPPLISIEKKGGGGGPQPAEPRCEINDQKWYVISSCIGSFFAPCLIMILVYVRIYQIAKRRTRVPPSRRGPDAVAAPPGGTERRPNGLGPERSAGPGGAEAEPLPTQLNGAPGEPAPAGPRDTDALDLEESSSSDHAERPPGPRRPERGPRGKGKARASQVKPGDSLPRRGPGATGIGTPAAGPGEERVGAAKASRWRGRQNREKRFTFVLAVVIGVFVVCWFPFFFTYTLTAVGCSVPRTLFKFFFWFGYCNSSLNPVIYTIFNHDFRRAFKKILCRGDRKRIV
Experimental: To evaluate in radioligand binding assays the activity of compounds of the invention, human recombinant adrenergic α2A receptor expressed in insect Sf9 cells (Uhlen, S. et al, J. Pharmacol. Exp. Ther. 271:1558, 1994) in a modified Tris-HCl buffer (50 mM Tris-HCl, pH 7.4, 12.5 mM MgCl2, 2 mM EDTA) was used. Compounds of invention were incubated with 1 nM [^3H]MK-912 for 60 min at 25° C. MK-912 is (2S-trans)-1,3,4,5′,6,6′,7,12b-octahydro-1′,3′-dimethyl-spiro[2H-benzofuro[2,3-a]quinolizine-2,4′(1′H)-pyrimidin]-2′(3′H)-one hydrochloride Non-specific binding was estimated in the presence of 10 μM WB-4101 (2-(2,6-Dimethoxyphenoxyethyl)aminomethyl-1,4-benzodioxane hydrochloride). Receptor proteins were filtered and washed, the filters were then counted to determine [^3H]MK-912 specifically bound. […] Compounds of the invention were tested in this biochemical assay and percent inhibition of specific binding was determined.

T3 sequence (P28223 whole entry): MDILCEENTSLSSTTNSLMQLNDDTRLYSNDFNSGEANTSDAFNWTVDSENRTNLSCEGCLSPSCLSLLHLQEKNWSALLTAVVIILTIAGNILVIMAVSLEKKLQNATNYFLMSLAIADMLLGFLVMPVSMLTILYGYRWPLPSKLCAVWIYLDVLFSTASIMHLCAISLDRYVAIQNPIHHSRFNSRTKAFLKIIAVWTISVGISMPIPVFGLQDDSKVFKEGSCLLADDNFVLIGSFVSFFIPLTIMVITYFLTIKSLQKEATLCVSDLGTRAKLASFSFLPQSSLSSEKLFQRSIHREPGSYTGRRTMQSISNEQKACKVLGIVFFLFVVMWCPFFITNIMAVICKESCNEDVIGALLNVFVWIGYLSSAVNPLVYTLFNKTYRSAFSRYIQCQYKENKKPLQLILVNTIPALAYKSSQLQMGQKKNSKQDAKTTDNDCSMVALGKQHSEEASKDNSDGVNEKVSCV
T1 sequence (P14416 whole entry): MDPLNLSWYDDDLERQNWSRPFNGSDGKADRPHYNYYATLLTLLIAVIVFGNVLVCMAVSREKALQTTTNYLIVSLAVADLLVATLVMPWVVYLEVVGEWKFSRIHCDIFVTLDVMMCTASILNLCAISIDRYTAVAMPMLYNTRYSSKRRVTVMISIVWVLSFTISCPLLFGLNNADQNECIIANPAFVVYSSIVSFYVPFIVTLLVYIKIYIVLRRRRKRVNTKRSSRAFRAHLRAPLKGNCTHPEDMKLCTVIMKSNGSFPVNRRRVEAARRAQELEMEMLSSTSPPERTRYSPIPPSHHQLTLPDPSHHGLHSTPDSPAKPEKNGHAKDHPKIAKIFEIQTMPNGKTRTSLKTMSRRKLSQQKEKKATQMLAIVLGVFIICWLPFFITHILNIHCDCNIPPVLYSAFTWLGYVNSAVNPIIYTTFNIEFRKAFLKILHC

SMILES	inhibition at 1 µM [1]	inhibition at 0.1 µM [2]	inhibition at 0.1 µM [3]	inhibition at 0.1 µM [4]	inhibition at 0.1 µM ([1]; read-out: Dopamine D2L (0.1 μM), percent inhibition of specific binding, compound at 0.1 μM)
Cc1ccc2c(c1)c1c(n2-c2ccccc2-c2ccc3c(ccn3C)c2)CCN(C)C1 [Compound No. 85, 2,8-dimethyl-5-(2-(1-methyl-1H-indol-5-yl)phenyl)-2,3,4,5-tetrahydro-1H-pyrido[4,3-b]indole]	11%	24%	49%	94%	
Cc1ccc2c(c1)c1c(n2-c2cscc2-c2ccc(S(C)(=O)=O)cc2)CCN(C)C1 [Compound No. 76]	11%	82%	30%	90%	
Cc1csc(-c2cscc2-n2c3c(c4cc(C)ccc42)CN(C)CC3)c1 [Compound 50]	36%	65%	86%	93%	
Cc1ccc2c(c1)c1c(n2-c2cscc2-c2ccc(C)s2)CCN(C)C1 [Compound No. 79]	30%	79%	77%	92%	
Cc1ccc2c(c1)c1c(n2-c2cscc2-c2ccc3cnccc3c2)CCN(C)C1 [Compound No. 68]	9%	71%	35%	90%	
COc1ccc(-c2cscc2-n2c3c(c4cc(C)ccc42)CN(C)CC3)cc1 [Compound 37]	18%	82%	59%	94%	
Cc1ccc2c(c1)c1c(n2-c2cccc(-c3cc4ccccc4s3)c2)CCN(C)C1 [Compound 51, 5-(3-(benzo[b]thiophen-2-yl)phenyl)-2,8-dimethyl-2,3,4,5-tetrahydro-1H-pyrido[4,3-b]indole]	3%	-6%	86%		
Cc1ccc2c(c1)c1c(n2-c2cccc(-c3ccc4c(ccn4C)c3)c2)CCN(C)C1 [Compound 53, 2,8-dimethyl-5-(3-(1-methyl-1H-indol-5-yl)phenyl)-2,3,4,5-tetrahydro-1H-pyrido[4,3-b]indole]	13%	-11%	89%		
CNC(=O)c1ccc(-c2ccccc2-n2c3c(c4cc(C)ccc42)CN(C)CC3)cc1 [Compound No. 72, 2′-(2,8-dimethyl-3,4-dihydro-1H-pyrido[4,3-b]indol-5(2H)-yl)-N-methylbiphenyl-4-carboxamide]	16%	36%	35%		
Cc1ccc2c(c1)c1c(n2-c2cccc(-c3ccc(F)nc3)c2)CCN(C)C1 [Compound 44, 5-(3-(6-fluoropyridin-3-yl)phenyl)-2,8-dimethyl-2,3,4,5-tetrahydro-1H-pyrido[4,3-b]indole]	23%	15%	103%		
Cc1ccc2c(c1)c1c(n2-c2cccc(-c3cncc4ccccc34)c2)CCN(C)C1 [Compound No. 67, 5-(3-(isoquinolin-4-yl)phenyl)-2,8-dimethyl-2,3,4,5-tetrahydro-1H-pyrido[4,3-b]indole]	61%	1%	75%		
Cc1ccc2c(c1)c1c(n2-c2ccc(-c3ccc(S(N)(=O)=O)cc3)cn2)CCN(C)C1 [Compound No. 145, 4-(6-(2,8-dimethyl-3,4-dihydro-1H-pyrido[4,3-b]indol-5(2H)-yl)pyridin-3-yl)benzenesulfonamide]	8%	44%	82%		
Cc1ccc2c(c1)c1c(n2-c2cscc2-c2cnn(C)c2)CCN(C)C1 [Compound 30]	4%	62%	92%		
Cc1ccc2c(c1)c1c(n2-c2ccc(-c3ccc4c(ccn4C)c3)cn2)CCN(C)C1 [Compound No. 136, 2,8-dimethyl-5-(5-(1-methyl-1H-indol-5-yl)pyridin-2-yl)-2,3,4,5-tetrahydro-1H-pyrido[4,3-b]indole]	15%	20%	98%		
CC(=O)Nc1ccc(-c2ccccc2-n2c3c(c4cc(C)ccc42)CN(C)CC3)cn1 [Compound No. 83, N-(5-(2-(2,8-dimethyl-3,4-dihydro-1H-pyrido[4,3-b]indol-5(2H)-yl)phenyl)pyridin-2-yl)acetamide]	15%	23%	41%		
Cc1ccc2c(c1)c1c(n2-c2cscc2-c2sccc2C)CCN(C)C1 [Compound 39]	54%	31%	84%		
Cc1ccc2c(c1)c1c(n2-c2cccc(-c3ccc4[nH]cnc4c3)c2)CCN(C)C1 [Compound 54, 5-(3-(1H-benzo[d]imidazol-5-yl)phenyl)-2,8-dimethyl-2,3,4,5-tetrahydro-1H-pyrido[4,3-b]indole]	22%	-7%	92%		
Cc1ccc2c(c1)c1c(n2-c2cccc(-c3ccc(S(N)(=O)=O)cc3)c2)CCN(C)C1 [Compound No. 158, 3′-(2,8-dimethyl-3,4-dihydro-1H-pyrido[4,3-b]indol-5(2H)-yl)biphenyl-4-sulfonamide]		4%	91%		1%
Cc1ccc2c(c1)c1c(n2-c2ccc(-c3cncc4ccccc34)cn2)CCN(C)C1 [Compound No. 135, 5-(5-(isoquinolin-4-yl)pyridin-2-yl)-2,8-dimethyl-2,3,4,5-tetrahydro-1H-pyrido[4,3-b]indole]	12%	36%	72%		
CNC(=O)c1ccc(-c2cccc(-n3c4c(c5cc(C)ccc53)CN(C)CC4)c2)cn1 [Compound No. 75, 5-(3-(2,8-dimethyl-3,4-dihydro-1H-pyrido[4,3-b]indol-5(2H)-yl)phenyl)-N-methylpicolinamide]	18%	21%	55%		
